Experimental findings from patent US20150018403A1, “FLUORENE-AMIDE COMPOUNDS AND PHARMACEUTICAL USE THEREOF” (JAPAN TOBACCO INC., priority 2013, published 2015) are described below.

Each structure is given as a SMILES string. pIC50: −log10 of the molar value.

One series deals with T1, human PDHK2 (hPDHK2) (Homo sapiens, UniProt Q15119).
T1 construct: made in house; host or cells: Escherichia coli BL21(DE3), pET17b vector
The series can be described thus: Inhibitory action of PDHK2 activity in vitro (residual PDH activity after kinase reaction). It is filed as biochemical. To be noted: PDH/hPDHK2 complex, 45 min kinase reaction at room temperature; read-out: hPDHK2 IC50. As to the method: The inhibitory action of PDHK activity was assessed indirectly by measuring the residual PDH activity after kinase reaction in the presence of a test compound.
In the case of human PDHK2 (hPDHK2, Genbank Accession No. BC040478.1), modified hPDHK2 cDNA wherein FLAG-Tag sequence was added to the N terminus of hPDHK2 cDNA clone (pReceiver-M01/PDK2-GeneCopoeia) was prepared by PCR and cloned into a vector (pET17b-Novagen). The recombinant construct was transformed into Escherichia coli (DH5α-TOYOBO). The recombinant clones were identified, and plasmid DNA was isolated and subjected to the DNA sequence analysis. One clone which had the expected nucleic acid sequence was selected for expression work.
For expression of hPDHK2 activity, Escherichia coli strain BL21(DE3) cells (Novagen) were transformed with the pET17b vector containing modified hPDHK2 cDNA. The Escherichia coli were grown to an optical density 0.6 ([…]) at 30° C. Protein expression was induced by the addition of 500 μmol/L isopropyl-β-thiogalactopyranoside. The Escherichia coli were cultured at 30° C. for 5 hr and harvested by centrifugation. Resuspension of the Escherichia coli paste was disrupted by a microfluidizer. FLAG-Tagged protein was purified using FLAG affinity gel. The gel was washed with 20 mmol/L HEPES-NaOH, 500 mmol/L sodium chloride, 1% ethylene glycol, and 0.1% Pluronic F-68 (pH 8.0), and the binding protein was eluted with 20 mmol/L HEPES-NaOH, 100 μg/mL FLAG peptide, 500 mmol/L sodium chloride, 1% ethylene glycol, and 0.1% Pluronic F-68 (pH 8.0). The eluted fractions containing FLAG-Tagged protein were pooled, dialyzed against 20 mmol/L HEPES-NaOH, 150 mmol/L sodium chloride, 0.5 mmol/L EDTA, 1% ethylene glycol, and 0.1% Pluronic F-68 (pH 8.0), and preserved at −80° C.
0.05 U/mL PDH and 0.8 μg/mL hPDHK2 were mixed in a buffer (50 mmol/L 3-morpholinopropanesulfonic acid (pH 7.0), 20 mmol/L dipotassium hydrogen phosphate, 60 mmol/L potassium chloride, 2 mmol/L magnesium chloride, 0.4 mmol/L EDTA, and 0.2% Pluronic F-68, 2 mmol/L dithiothreitol), and the mixture was incubated at 4° C. overnight to obtain a PDH/hPDHK2 complex. The test compounds were diluted with DMSO. […] DMSO (1.5 μL) was added to control wells instead of the test compound. […] The mixture was incubated at room temperature for 90 min, and the residual PDH activity was measured. The absorbance at 340 nm before and after PDH reaction was measured using a microplate reader to detect NADH produced by the PDH reaction. The hPDHK2 inhibition rate (%) of the test compound was calculated from the formula [{(PDH activity of test compound−PDH activity of control)/PDH activity of blank−PDH activity of control)}×100].

Series [1] is described as follows: Metabolic stability test in rat liver microsome. It counts as in vitro ADME. (Liver microsomes are vesicles of endoplasmic reticulum, rich in cytochrome P450 enzymes.)

Consider `C[C@H](O)COc1cc(-c2cnn(C(C)(C)C(N)=O)c2)c2c(c1)[C@@](O)(C(F)(F)F)c1ccccc1-2` [compound (2), 2-(4-{(9R)-9-hydroxy-2-[(2S)-2-hydroxypropoxy]-9-(trifluoromethyl)-9H-fluoren-4-yl}-1H-pyrazol-1-yl)-2-methylpropanamide], for which the pIC50 on human PDHK2 (hPDHK2) was 8.31. Besides, the “stability in liver microsome (residual ratio %)” value in series [1] (10 min) stood at 98.3%; in series [1] (60 min) it was 98.5%.
Taken in the same sequence, the figures for `Cn1cc(-c2cc(OCC(C)(C)O)cc3c2-c2ccccc2[C@]3(O)C(F)(F)F)cn1` [compound (B), (9R)-2-(2-Hydroxy-2-methylpropoxy)-4-(1-methyl-1H-pyrazol-4-yl)-9-(trifluoromethyl)-9H-fluoren-9-ol, reference compound] were 8.13, 101.1% and 92.1%.

The pIC50 is −log10 of the IC50, conventionally taken in molar units.
